The values that follow come from PubChem BioAssay AID1996.

A word on the solubility (kinetic): it is solubility judged after dilution from a stock solution rather than from solid.

Each structure is given as a SMILES string. ≈ marks a conversion by molar mass, not a printed value.

The conditions of the data set: buffer; pH 7.4; 200.0 µM.
In turn, `Cc1ccc2cc(C)c(SCC(=O)Nc3cc(C)on3)nc2c1` showed a solubility (kinetic) of under 0.2 µg/mL.
Then `COc1ccc(C(=O)NCCCN2CCOCC2)cc1`, with over 41.8 µg/mL; and `COCC(=O)OCc1cc2cccc(C)c2[nH]c1=O`, with 38.9 µg/mL (≈ 149 µM).
`Cn1cc(/C=C/C(=O)c2ccccc2)c2ccccc21` registered a solubility (kinetic) of 0.7 µg/mL (≈ 2.68 µM).
Molecule `CN(C)c1cc[n+](CC(=O)Nc2cccc([N+](=O)[O-])c2)cc1.[Cl-]` displayed a solubility (kinetic) of over 50.5 µg/mL.
With `CCOC(=O)N1CCN(C(=O)COC(=O)c2ccc(O)cc2O)CC1` the figure was over 52.9 µg/mL.
With `O=C(NC(=S)N1CCCC(O)C1)c1ccco1` (configuration not stated) the figure was over 38.1 µg/mL.
Then `CCCCN(C(=O)C1COc2ccccc2O1)c1c(N)n(CCC)c(=O)[nH]c1=O` (configuration not stated), with over 60.4 µg/mL.
`CCC(C(=O)Nc1cccnc1Cl)c1ccccc1` (configuration not stated) gave a solubility (kinetic) of 30.2 µg/mL (≈ 110 µM).
With `O=C(NS(=O)(=O)c1ccccc1)c1cccc(Br)c1` the figure was over 51 µg/mL.
Molecule `COC(=O)c1ccc(CSC(=N)N)o1` displayed a kinetic solubility of 27.6 µg/mL (≈ 129 µM).
The molecule `CN(CCOc1ccc(F)cc1)Cc1ccccc1.O=C(O)C(=O)O` returned a solubility (kinetic) of 34.6 µg/mL.
With `COc1cc(/C=C/C(=O)OCC(=O)NCC2CCCCC2)ccc1O` the figure was over 52.1 µg/mL; with `Cc1cc2c(cc1C)C(c1cccc(F)c1)CC(=O)N2` (configuration not stated), under 0.6 µg/mL; with `COc1ccc(NC(=O)CNc2ccccc2C(C)=O)cc1S(=O)(=O)N1CCOCC1`, 63.9 µg/mL (≈ 143 µM).
With `CC1=Nc2cc(C(=O)O)ccc2Sc2c(C)ccc(C)c21` the figure was 42.1 µg/mL (≈ 142 µM); with `Nc1cccc([N+](=O)[O-])c1`, 16.7 µg/mL (≈ 121 µM).
With `CCn1c(-c2ccc[nH]c2=O)nc2ccccc21` the figure was over 35.9 µg/mL.
For the molecule `Cc1cc(=O)oc2cc(OCCSCCN3CCCCC3)ccc12`, the solubility (kinetic) is over 52.1 µg/mL.
With `O=[N+]([O-])c1ccc(CN2CCN(c3ccccc3)CC2)o1` the figure was 14.5 µg/mL (≈ 50.5 µM); with `COc1ccc(C(CNC(=O)c2cc(S(=O)(=O)NCc3ccco3)ccc2C)N(C)C)cc1` (configuration not stated), over 70.7 µg/mL.
Then `COc1cc(S(=O)(=O)N2CCCN(C)CC2)ccc1NC(C)=O`, with over 51.2 µg/mL; and `O=C(Nc1ccccc1)NC1(C(=O)N2CCC(O)CC2)CCCCC1`, with over 51.8 µg/mL.
Then `CC(NC(=O)CNC(=O)C1CCCCC1)c1cccc(Cl)c1` (configuration not stated), with 42.6 µg/mL (≈ 132 µM).
The molecule `CC(C)Oc1ccc(C(=O)OC(C)C(=O)NC2CCCCC2C)cc1` (configuration not stated) came in with a kinetic solubility of 4.4 µg/mL (≈ 12.7 µM). Compared with the last molecule, the solubility kinetic is about 9.7-fold lower.
For `CN(CCc1ccccn1)C(=O)Nc1cccc(Cl)c1`, the solubility (kinetic) was 38.6 µg/mL (≈ 133 µM).
With `COc1ccccc1NC(=O)COC(=O)c1cc(C)oc1C`, the kinetic solubility was 6.7 µg/mL (≈ 22.1 µM). This solubility kinetic is about 5.8-fold lower than that of the molecule before.
Then `CC1CCCC(C)N1C(=O)CSc1nccc(=O)[nH]1` (configuration not stated), with 29.3 µg/mL (≈ 104 µM).
Then `CCN(CC)C(=O)Nc1ccc(Br)cc1`, with over 40.7 µg/mL.
With `CC(C)c1cc(=O)n2c(nc3ccccc32)[nH]1` the figure was over 34.1 µg/mL; with `Cc1c(Cl)cccc1NC(=O)CNC(=O)c1ccco1`, 38.2 µg/mL (≈ 130 µM).
`COc1ccc(OC)c(-c2nc3ccccc3nc2-c2ccccc2)c1`: the solubility (kinetic) worked out at 0.6 µg/mL (≈ 1.75 µM).
For `COC(=O)CC(NC(=O)C1CC1)c1ccc2c(c1)OCO2` (configuration not stated), the kinetic solubility is over 43.7 µg/mL.
With `Cc1ccc(-c2noc(CCCC(=O)NC3CCCC3)n2)cc1` the figure was 44 µg/mL (≈ 140 µM); with `CN(C(=S)NC(=O)C1CC1)c1ccc(O)cc1`, over 37.5 µg/mL.
With `CCCOc1ccc(-c2nc[nH]c2[N+](=O)[O-])cc1` the figure was 0.5 µg/mL (≈ 2.02 µM); with `O=C(COC(=O)/C=C/c1ccccc1)NCc1cccs1`, 17.7 µg/mL (≈ 58.7 µM); with `COc1ccccc1C(=O)NC(=O)CSc1ccc(C)c(C)c1`, 14 µg/mL (≈ 42.5 µM).
Then `C=CCN1C(=S)CC(c2ccccc2)=Nc2ccccc21`, with 3.3 µg/mL (≈ 11.3 µM); and `Cc1cc(SCc2ccc(C(F)(F)F)cc2)nc(=O)[nH]1`, with 7.5 µg/mL (≈ 25 µM); and `NS(=O)(=O)c1ccc(CNC(=O)c2ccc3c(c2)OCO3)cc1`, with over 50.2 µg/mL.
`Cn1cc(S(=O)(=O)Nc2ccc(OC(F)(F)F)cc2)c(=O)n(C)c1=O` came in with a solubility (kinetic) of over 56.9 µg/mL.
With `O=C1Nc2ccccc2Sc2ccccc21` the figure was 1.2 µg/mL (≈ 5.28 µM); with `CCOc1cc(N2CCOCC2)c(OCC)cc1NC(=O)CSc1ncccc1C(=O)O`, over 69.2 µg/mL; with `Cc1ccc(C)c(NC(=O)C(=O)NCCc2c[nH]c3ccccc23)c1`, 0.7 µg/mL (≈ 2.09 µM).
`O=c1c([N+](=O)[O-])cccn1Cc1cccc(Cl)c1` yielded a solubility (kinetic) of over 39.7 µg/mL.
`O=C(CN1c2cccc3cccc(c23)S1(=O)=O)Nc1ccccc1Br` yielded a kinetic solubility of 4.4 µg/mL (≈ 10.5 µM).
Consider `Cc1cc(Cl)ccc1NC(=S)NCC(O)c1ccccc1` (configuration not stated), for which the kinetic solubility is over 48.1 µg/mL.
With `Cc1ccc(OCC(=O)NCCCNC(=O)c2cccnc2)cc1C` the figure was over 51.2 µg/mL; with `O=C(COC(=O)CC1CC2CCC1C2)NCc1ccccc1` (configuration not stated), over 45.2 µg/mL; with `CC(C(=O)Nc1cccc(C#N)c1)N(C)CCOc1ccccc1` (configuration not stated), 31.8 µg/mL (≈ 98.3 µM).
Then `O=c1[nH]c(=O)n([C@H]2C[C@H](O)[C@@H](CO)O2)cc1C(F)(F)F`, with over 44.4 µg/mL.
